Holding throughout (assay type): in vivo
For assay [1], the system named is Alopecurus myosuroides. Description: Herbicidal action in the greenhouse (post-emergence treatment). The text has this:
(§1) The mixtures according to the invention were applied pre- or post-emergence (foliar treatment). The herbicidal compounds of component B were applied in the formulation in which they are present as commercially available product.
(§2) Some of the experiments were greenhouse experiments and some were field trials on mini plots (on a site with sandy loam (pH 6.2 to 7.0) or sandy clay (pH 5.0 to 6.7) as the soil).
(§3) The harmful plants differed with regard to size and developmental state; on average, they were 5 to 20 cm long, depending on the growth habit.
(§4) The herbicidally active compounds of components A) and B) were applied in succession or jointly, in the latter case in some cases as a tank mix and in some cases as a readymix, in the form of emulsions, aqueous solutions or suspensions, the vehicle being water ([…]). In the case of the field trials, application was effected with the aid of a mobile plot sprayer.
(§5) The test period extended over 3 to 8 weeks, and the stands were also observed at later points in time.
(§6) Damage by the herbicidal compositions was evaluated with reference to a scale of 0% to 100% in comparison with untreated control plots. 0 means no damage and 100 means complete destruction of the plants.
(§7) In these examples, the value E at which only an additive effect of the individual active ingredients is to be expected was calculated by the method of S. R. Colby (Calculating synergistic and antagonistic responses of herbicide combinations, Weeds 15, 20 pp (1967).

Another assay relates to Ipomoea ssp. Described as above.
From the text: as §1, §2, §3, §4, §5, §6, §7

In assay [2] the test system is Abutilon theophrasti. The description is as above.
From the text: as §1, §2, §3, §4, §5, §6, §7

The test system of a further assay is Geranium carolinianum. Put plainly: Herbicidal action in the field (post-emergence treatment). The following applies: glyphosate 840 g/ha a.s.
From the text: as §1, §2, §3, §4, §5, §6, §7

In a further assay the test system is Sorghum halepense. The assay is described as above. The following applies: glyphosate 840 g/ha a.s.
From the text: as §1, §2, §3, §4, §5, §6, §7

In a further assay the test system is Ipomoea lacunosa. The assay is described as above. Conditions: nicosulfuron 35 g/ha a.s.
From the text: as §1, §2, §3, §4, §5, §6, §7

A further assay deals with Amaranthus retroflexus. Description: Herbicidal action in the greenhouse (post-emergence treatment).
From the text: as §1, §2, §3, §4, §5, §6, §7

For assay [3], the system named is Setaria faberi. Description: Herbicidal action in the field (post-emergence treatment).
From the text: as §1, §2, §3, §4, §5, §6, §7

The subject of another assay is Sorghum bicolor. The description is as above. The following applies: atrazine 840 g/ha a.s.
From the text: as §1, §2, §3, §4, §5, §6, §7

Assay [4] relates to Abutilon theophrasti. The assay is described as above.
From the text: as §1, §2, §3, §4, §5, §6, §7

The subject of assay [5] is Setaria viridis. The description is as above. The following applies: Sethoxydim 160 g/ha a.s.
From the text: as §1, §2, §3, §4, §5, §6, §7

The subject of assay [6] is Alopecurus myosuroides. Described as above. The following applies: fenoxaprop-ethyl 83 g/ha a.s.
From the text: as §1, §2, §3, §4, §5, §6, §7

In the next assay the test system is Galium aparine. Described as above.
From the text: as §1, §2, §3, §4, §5, §6, §7

For assay [7], the system named is Setaria viridis. Description: Herbicidal action in the greenhouse (post-emergence treatment). The following applies: isoxaflutole 31.2 g/ha a.s.
From the text: as §1, §2, §3, §4, §5, §6, §7

A further assay relates to Bidens pilosa. Put plainly: Herbicidal action in the field (post-emergence treatment).
From the text: as §1, §2, §3, §4, §5, §6, §7

The test system of another assay is Cyperus species. The assay is described as above.
From the text: as §1, §2, §3, §4, §5, §6, §7

A further assay deals with Ipomoea acuminata. The description is as above.
From the text: as §1, §2, §3, §4, §5, §6, §7

The subject of another assay is Digitaria adscendens. The description is as above.
From the text: as §1, §2, §3, §4, §5, §6, §7

Another assay deals with Echinochloa crus-galli. Put plainly: Herbicidal action in the greenhouse (post-emergence treatment).
From the text: as §1, §2, §3, §4, §5, §6, §7

For assay [8], the system named is Setaria faberi. The assay is described as above. The following applies: glufosinate-ammonium 31.2 g/ha a.s.
From the text: as §1, §2, §3, §4, §5, §6, §7

A further assay concerns Phalaris spec. Put plainly: Herbicidal action in the field (post-emergence treatment). Conditions: 2,4-D 500 g/ha a.s.
From the text: as §1, §2, §3, §4, §5, §6, §7

For assay [9], the system named is Ipomoea purpurea var. diversifolia. The description is as above.
From the text: as §1, §2, §3, §4, §5, §6, §7

For the next assay, the system named is Chenopodium album. The assay is described as above. Conditions: Cycloxydim 100 g/ha a.s.
From the text: as §1, §2, §3, §4, §5, §6, §7

Another assay has as its system Digitaria sanguinalis. The assay is described as above. Conditions: Cycloxydim 100 g/ha a.s.
From the text: as §1, §2, §3, §4, §5, §6, §7

In another assay the test system is Brachiaria plantaginea. Described as above. The following applies: pendimethalin 990 g/ha a.s.
From the text: as §1, §2, §3, §4, §5, §6, §7

The next assay concerns Stellaria media. The assay is described as above.
From the text: as §1, §2, §3, §4, §5, §6, §7

The subject of the next assay is Veronica ssp. Put plainly: Herbicidal action in the greenhouse (post-emergence treatment).
From the text: as §1, §2, §3, §4, §5, §6, §7

The mark [10] stands for this setting: glufosinate-ammonium 400 g/ha a.s.

In patent US20030203819A1, “Synergistically acting herbicidal mixtures” (priority 1998, published 2003) one finds Damage and pest or weed control data, which are given here for 31 compounds.

`CC(C)C1(C)N=C(c2ncccc2C(=O)O)NC1=O` (stereo not shown) [imazapyr, reference compound]: the results for the Damage in the assay on Alopecurus myosuroides [1] (imazapyr 250 g/ha a.s.) and in the assay with Ipomoea ssp. (imazapyr 62.5 g/ha a.s.) were 90% and 85%, respectively.

For the compound `CCOCN(C(=O)CCl)c1c(C)cccc1CC` [acetochlor, reference compound], the Damage in the assay on Abutilon theophrasti [2] (acetochlor 31.2 g/ha a.s.) is listed as 0%.

As to `O=C(O)CNCP(=O)(O)O` [glyphosate, reference compound], the Damage amounted to 97% in the assay with Geranium carolinianum and 74% with Sorghum halepense.

Turning to `COc1cc(OC)nc(NC(=O)NS(=O)(=O)c2ncccc2C(=O)N(C)C)n1` [nicosulfuron, reference compound], the Damage in the assay with Ipomoea lacunosa worked out at 39%. For the same compound, the pest or weed control at 1.9 g/ha in the assay on Amaranthus retroflexus (Amaranthus retroflexus, post-emergence, nicosulfuron 1.9 g/ha a.s., read-out: Damage) stood at 65%.

On to `CCNc1nc(Cl)nc(NC(C)C)n1` [atrazine, reference compound], for which the Damage in the assay with Setaria faberi [3] (atrazine 1120 g/ha a.s.) stood at 20%; with Sorghum bicolor it was 27%; in the assay with Abutilon theophrasti [4] (atrazine 1120 g/ha a.s.) it was 32%.

In the case of `CCC/C(=N\OCC)C1=C(O)CC(CC(C)SCC)CC1=O` (stereo not shown) [Sethoxydim, sethoxydim, reference compound], the Damage came to 93% with Setaria viridis [5] and 0% with Abutilon theophrasti [4] (Sethoxydim 160 g/ha a.s.).

On to `CCOC(=O)C(C)Oc1ccc(Oc2nc3ccc(Cl)cc3o2)cc1` (stereo not shown) [fenoxaprop-ethyl, reference compound], for which the values for the Damage in the assay with Alopecurus myosuroides [6] and in the assay on Galium aparine (fenoxaprop-ethyl 83 g/ha a.s.) were 82% and 0%, respectively. Also, the pest or weed control at 31.2 g/ha in the assay with Amaranthus retroflexus (Amaranthus retroflexus, post-emergence, fenoxaprop-ethyl (title: fenoxaprop-P-ethyl) 31.2 g/ha a.s., read-out: Damage) came out at 0%.

Regarding `CCOC(=O)/C(Cl)=C/c1cc(N2C(=O)C3=C(CCCC3)C2=O)ccc1Cl` [cinidon-ethyl, reference compound], in the assay on Galium aparine (cinidon-ethyl 7.8 g/ha a.s.), the Damage turned out to be 90%.

`CS(=O)(=O)c1cc(C(F)(F)F)ccc1C(=O)c1cnoc1C1CC1` [isoxaflutole, reference compound]: the Damage came to 30% in the assay on Setaria viridis [7] and 55% in the assay with Ipomoea ssp. (isoxaflutole 62.5 g/ha a.s.).

With `CSc1nnc(C(C)(C)C)c(=O)n1N` [metribuzin, reference compound], the Damage in the assay with Bidens pilosa (metribuzin 200 g/ha a.s.) is given as 38%; with Cyperus species (metribuzin 200 g/ha a.s.), 50%.

Take `CP(=O)(O)CCC(N)C(=O)O` (stereo not shown) [glufosinate-ammonium, reference compound]: the Damage amounted to 75% in the assay with Ipomoea acuminata (setting [10]), 75% with Digitaria adscendens (setting [10]), 0% in the assay with Echinochloa crus-galli (glufosinate-ammonium 15.6 g/ha a.s.) and 65% in the assay on Setaria faberi [8].

For the compound `O=C(O)COc1ccc(Cl)cc1Cl` [2,4-D, reference compound], the Damage is reported as 20% in the assay with Phalaris spec., 20% in the assay with Amaranthus retroflexus (2,4-D 62.5 g/ha a.s.) and 40% in the assay with Abutilon theophrasti [2] (2,4-D 62.5 g/ha a.s.).

Consider `Nc1cnn(-c2ccccc2)c(=O)c1Cl` [chloridazon, reference compound], for which the Damage in [9] (chloridazon 1720 g/ha a.s.) is listed as 40%.

Consider `CCCC(=NOCC)C1=C(O)CC(C2CCCSC2)CC1=O` (stereo not shown) [Cycloxydim, cycloxydim, reference compound], for which the values for the Damage in the assay on Chenopodium album and with Digitaria sanguinalis were 0% and 81%, respectively.

Regarding `CCC(CC)Nc1c([N+](=O)[O-])cc(C)c(C)c1[N+](=O)[O-]` [pendimethalin, reference compound], the Damage with Brachiaria plantaginea was found to be 0%.

As for `CS(=O)(=O)c1ccc(C(=O)C2C(=O)CCCC2=O)c(Cl)c1` [sulcotrione, reference compound], the Damage with Ipomoea acuminata (sulcotrione 300 g/ha a.s.) turned out to be 86%. The pest or weed control at 250 g/ha in the assay with Amaranthus retroflexus (Amaranthus retroflexus, post-emergence, read-out: Damage, sulcotrione 250 g/ha a.s.) was determined as 45%.

Regarding `CN(C)C(=O)Nc1ccc(Cl)c(Cl)c1` [diuron, reference compound], in the assay on Alopecurus myosuroides [1] (diuron 250 g/ha a.s.), the Damage is reported as 80%.

As to imazamethabenz [reference compound], the Damage in the assay with Stellaria media (imazamethabenz 525 g/ha a.s.) came out at 0%.

As for `N#Cc1cc(Br)c(O)c(Br)c1` [bromoxynil, reference compound], the Damage in the assay on Galium aparine (bromoxynil 470 g/ha a.s.) is 84%.

As to `CC(C)C1(C)N=C(c2nc3ccccc3cc2C(=O)O)NC1=O` (stereo not shown) [imazaquin, reference compound], the Damage in the assay on Bidens pilosa (imazaquin 150 g/ha a.s.) is recorded as 45%.

With `Cc1cc(Cl)ccc1OCC(=O)O` [MCPA, reference compound], the Damage with Cyperus species (MCPA 600 g/ha a.s.) amounted to 5%.

As for `COC(=O)c1c(Cl)nn(C)c1S(=O)(=O)NC(=O)Nc1nc(OC)cc(OC)n1` [halosulfuron-methyl, reference compound], the Damage in the assay on Alopecurus myosuroides [1] (halosulfuron-methyl 31.2 g/ha a.s.) is given as 45%. The pest or weed control at 7.8 g/ha in the assay with Amaranthus retroflexus (Amaranthus retroflexus, post-emergence, read-out: Damage, halosulfuron-methyl 7.8 g/ha a.s.) was 80%.

As to `COc1cc(OC)n2nc(S(=O)(=O)Nc3c(Cl)ccc(C)c3Cl)nc2n1` [metosulam, reference compound], the Damage with Veronica ssp. (metosulam 1.9 g/ha a.s.) amounted to 40%.

Turning to `CC(C)N(C(=O)COc1nnc(C(F)(F)F)s1)c1ccc(F)cc1` [flufenacet, reference compound], in the assay on Digitaria adscendens (flufenacet 600 g/ha a.s.), the Damage came out at 58%.

Regarding `COc1nc(NC(=O)NS(=O)(=O)c2ccccc2C(F)(F)F)nc(C(F)(F)F)n1` [N-[[[4-methoxy-6-(trifluoromethyl)-1,3,5-triazin-2-yl]amino]carbonyl]-2-(trifluoromethyl)benzenesulfonamide, reference compound], the Damage with Setaria faberi [3] (the benzenesulfonamide (B2) 50 g/ha a.s.) is 0%.

Consider `CCc1cnc(C2=NC(C)(C(C)C)C(=O)N2)c(C(=O)O)c1` (stereo not shown) [imazethapyr, reference compound], for which the Damage was 33% in the assay on Ipomoea acuminata (imazethapyr 70 g/ha a.s.) and 58% in [9] (imazethapyr 70 g/ha a.s.).

Regarding `O=C(O)c1c(Cl)ccc2cc(Cl)cnc12` [Quinclorac, quinclorac, reference compound], the Damage with Ipomoea ssp. (Quinclorac 250 g/ha a.s.) was 70%; with Veronica ssp. (Quinclorac 500 g/ha a.s.), 80%.

Regarding `O=C(O)c1cc(Oc2ccc(C(F)(F)F)cc2Cl)ccc1[N+](=O)[O-]` [acifluorfen, reference compound], the Damage in the assay with Galium aparine (acifluorfen 100 g/ha a.s.) was 48%.

Turning to `CC(C)c1ccc(NC(=O)N(C)C)cc1` [isoproturon, reference compound], the Damage in the assay with Stellaria media (isoproturon 1000 g/ha a.s.) is recorded as 94%.

As to `CCCCCCCCSC(=O)Oc1cc(Cl)nnc1-c1ccccc1` [pyridate, reference compound], the Damage with Bidens pilosa (pyridate 450 g/ha a.s.) was 25%; in the assay with Setaria faberi [3] (pyridate 450 g/ha a.s.), 0%.

For the compound `COc1cc(OC)nc(Sc2cccc(Cl)c2C(=O)O)n1` [pyrithiobac-sodium, reference compound], the Damage in the assay on Echinochloa crus-galli (pyrithiobac-sodium 7.8 g/ha a.s.) was 10%.
